Active and inactive are the calls of the source. The calls are words filed in the database; no cut-off is given here.

Inhibition data for one compound are collected here from ChEMBL document CHEMBL3745672, “Novel compounds reducing IRS-1 serine phosphorylation for treatment of diabetes” (Bioorg Med Chem Lett, 2016).

For test [1], the target named is Mitogen-activated protein kinase 8 (Rattus norvegicus) (UniProt P49185). The test is described as follows: Inhibition of JNK1 phosphorylation in rat RINm5F cells assessed as suppression of albumin-conjugated palmitate-induced IRS-1 Ser307 phosphorylation incubated for 8 hrs. It is filed as cell-based. More on the design: concentration or dose not given beside the values. As to conditions: concentration not given here.
Mitogen-activated protein kinase 8 (Rattus norvegicus), sequence (P49185 whole entry): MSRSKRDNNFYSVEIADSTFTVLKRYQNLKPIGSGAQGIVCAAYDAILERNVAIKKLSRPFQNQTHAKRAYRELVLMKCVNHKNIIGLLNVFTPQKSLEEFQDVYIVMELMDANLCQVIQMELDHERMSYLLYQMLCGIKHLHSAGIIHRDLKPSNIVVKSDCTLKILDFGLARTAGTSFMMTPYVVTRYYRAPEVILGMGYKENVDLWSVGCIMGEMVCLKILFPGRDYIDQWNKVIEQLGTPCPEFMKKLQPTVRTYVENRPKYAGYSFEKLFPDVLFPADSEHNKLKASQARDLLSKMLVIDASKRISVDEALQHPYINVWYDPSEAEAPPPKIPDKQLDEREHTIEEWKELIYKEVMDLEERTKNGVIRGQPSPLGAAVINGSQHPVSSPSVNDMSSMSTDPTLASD

Test [2] addresses Tyrosine-protein kinase CSK (Homo sapiens) (UniProt P41240). The experiment in a line: Inhibition of CSK (unknown origin) at 1 uM.
Test [3] deals with Receptor-type tyrosine-protein kinase FLT3 (Homo sapiens) (UniProt P36888). The test is described as follows: Inhibition of FLT3 (unknown origin) at 1 uM.
For test [4], the target named is Cyclin-dependent kinase 4/cyclin D1 (Homo sapiens) (UniProt P11802+P24385). The experiment in a line: Inhibition of CDK4/cyclin D1 (unknown origin) at 1 uM. Format: protein-complex assay.
For test [5], the target named is Serine/threonine-protein kinase mTOR (Homo sapiens) (UniProt P42345). The test is described as follows: Inhibition of mTOR (unknown origin) at 1 uM.
Test [6] addresses Rho-associated protein kinase 2 (Homo sapiens) (UniProt O75116). The test is described as follows: Inhibition of ROCK2 (unknown origin) at 1 uM.
Test [7] deals with Vascular endothelial growth factor receptor 2 (Homo sapiens) (UniProt P35968). The experiment in a line: Inhibition of VEGFR2 (unknown origin) at 1 uM.
Vascular endothelial growth factor receptor 2 (Homo sapiens), sequence (P35968 whole entry): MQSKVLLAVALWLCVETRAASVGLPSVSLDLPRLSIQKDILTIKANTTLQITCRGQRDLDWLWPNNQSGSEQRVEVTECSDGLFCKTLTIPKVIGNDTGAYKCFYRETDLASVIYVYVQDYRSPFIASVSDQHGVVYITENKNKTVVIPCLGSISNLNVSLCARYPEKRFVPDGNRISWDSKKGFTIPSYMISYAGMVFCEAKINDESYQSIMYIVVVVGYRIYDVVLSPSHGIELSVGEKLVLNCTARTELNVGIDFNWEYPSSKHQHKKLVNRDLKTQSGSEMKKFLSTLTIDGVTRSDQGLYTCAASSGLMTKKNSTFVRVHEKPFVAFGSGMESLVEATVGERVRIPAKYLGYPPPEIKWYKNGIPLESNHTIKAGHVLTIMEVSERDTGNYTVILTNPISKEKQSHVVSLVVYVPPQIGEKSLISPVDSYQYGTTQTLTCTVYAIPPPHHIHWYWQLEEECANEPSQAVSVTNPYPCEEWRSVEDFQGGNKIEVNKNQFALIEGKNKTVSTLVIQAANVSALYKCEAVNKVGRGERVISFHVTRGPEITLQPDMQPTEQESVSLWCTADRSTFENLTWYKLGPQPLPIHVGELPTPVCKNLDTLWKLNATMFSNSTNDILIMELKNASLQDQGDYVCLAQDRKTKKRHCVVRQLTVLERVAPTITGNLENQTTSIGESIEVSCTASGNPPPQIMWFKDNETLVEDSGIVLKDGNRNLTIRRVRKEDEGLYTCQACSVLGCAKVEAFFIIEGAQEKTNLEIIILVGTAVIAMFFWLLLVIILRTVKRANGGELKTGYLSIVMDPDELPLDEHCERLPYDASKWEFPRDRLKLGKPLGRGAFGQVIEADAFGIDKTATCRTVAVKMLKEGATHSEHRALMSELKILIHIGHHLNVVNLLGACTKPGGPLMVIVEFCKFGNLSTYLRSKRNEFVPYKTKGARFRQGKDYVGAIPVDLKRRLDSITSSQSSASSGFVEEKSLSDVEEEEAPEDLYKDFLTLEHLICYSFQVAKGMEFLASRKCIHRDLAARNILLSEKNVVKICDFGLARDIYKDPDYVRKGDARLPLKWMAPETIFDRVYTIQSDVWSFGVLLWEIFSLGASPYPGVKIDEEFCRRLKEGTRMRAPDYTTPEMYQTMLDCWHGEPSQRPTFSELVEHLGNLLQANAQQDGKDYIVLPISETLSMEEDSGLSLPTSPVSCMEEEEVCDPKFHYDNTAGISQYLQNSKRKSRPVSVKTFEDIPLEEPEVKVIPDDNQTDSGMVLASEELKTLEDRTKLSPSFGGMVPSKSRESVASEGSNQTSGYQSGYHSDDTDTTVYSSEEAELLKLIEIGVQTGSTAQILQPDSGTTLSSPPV
Test [8] deals with Serine/threonine-protein kinase pim-1 (Homo sapiens) (UniProt P11309). The experiment in a line: Inhibition of PIM1 (unknown origin) at 1 uM.
Serine/threonine-protein kinase pim-1 (Homo sapiens), sequence (P11309 whole entry, looked up): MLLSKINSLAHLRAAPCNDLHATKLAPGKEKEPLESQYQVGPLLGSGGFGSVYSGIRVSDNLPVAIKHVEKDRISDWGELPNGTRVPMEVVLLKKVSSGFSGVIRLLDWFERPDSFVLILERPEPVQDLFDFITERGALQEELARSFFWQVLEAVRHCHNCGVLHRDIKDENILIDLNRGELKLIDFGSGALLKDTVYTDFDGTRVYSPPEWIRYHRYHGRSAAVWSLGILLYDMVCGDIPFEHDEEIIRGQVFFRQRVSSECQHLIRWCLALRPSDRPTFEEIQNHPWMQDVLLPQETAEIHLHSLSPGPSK
Test [9] addresses Insulin receptor (Homo sapiens) (UniProt P06213). The experiment in a line: Inhibition of INSR (unknown origin) at 1 uM.
The target in test [10] is Serine/threonine-protein kinase PAK 1 (Homo sapiens) (UniProt Q13153). The experiment in a line: Inhibition of PAK1 (unknown origin) at 1 uM.
Serine/threonine-protein kinase PAK 1 (Homo sapiens), sequence (Q13153 whole entry): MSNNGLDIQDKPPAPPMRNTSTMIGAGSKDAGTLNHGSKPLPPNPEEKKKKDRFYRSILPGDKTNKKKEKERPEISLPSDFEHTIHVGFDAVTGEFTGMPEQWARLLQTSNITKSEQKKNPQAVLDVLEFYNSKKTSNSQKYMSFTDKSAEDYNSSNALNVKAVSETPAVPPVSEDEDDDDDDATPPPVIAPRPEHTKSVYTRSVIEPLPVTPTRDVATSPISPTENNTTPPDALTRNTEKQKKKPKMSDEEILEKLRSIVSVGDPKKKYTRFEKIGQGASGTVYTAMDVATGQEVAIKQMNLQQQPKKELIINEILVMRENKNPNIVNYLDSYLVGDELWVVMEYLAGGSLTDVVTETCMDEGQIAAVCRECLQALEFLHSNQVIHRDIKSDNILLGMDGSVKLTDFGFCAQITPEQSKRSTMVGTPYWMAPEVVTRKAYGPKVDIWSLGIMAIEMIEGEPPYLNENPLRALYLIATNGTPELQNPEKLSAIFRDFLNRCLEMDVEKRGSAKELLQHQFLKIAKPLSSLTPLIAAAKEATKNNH
In test [11] the target is Tyrosine-protein kinase SYK (Homo sapiens) (UniProt P43405). The experiment in a line: Inhibition of SYK (unknown origin) at 1 uM.
The target of test [12] is T1, Tyrosine-protein kinase JAK3 (Homo sapiens) (UniProt P52333).
T1 sequence (whole entry): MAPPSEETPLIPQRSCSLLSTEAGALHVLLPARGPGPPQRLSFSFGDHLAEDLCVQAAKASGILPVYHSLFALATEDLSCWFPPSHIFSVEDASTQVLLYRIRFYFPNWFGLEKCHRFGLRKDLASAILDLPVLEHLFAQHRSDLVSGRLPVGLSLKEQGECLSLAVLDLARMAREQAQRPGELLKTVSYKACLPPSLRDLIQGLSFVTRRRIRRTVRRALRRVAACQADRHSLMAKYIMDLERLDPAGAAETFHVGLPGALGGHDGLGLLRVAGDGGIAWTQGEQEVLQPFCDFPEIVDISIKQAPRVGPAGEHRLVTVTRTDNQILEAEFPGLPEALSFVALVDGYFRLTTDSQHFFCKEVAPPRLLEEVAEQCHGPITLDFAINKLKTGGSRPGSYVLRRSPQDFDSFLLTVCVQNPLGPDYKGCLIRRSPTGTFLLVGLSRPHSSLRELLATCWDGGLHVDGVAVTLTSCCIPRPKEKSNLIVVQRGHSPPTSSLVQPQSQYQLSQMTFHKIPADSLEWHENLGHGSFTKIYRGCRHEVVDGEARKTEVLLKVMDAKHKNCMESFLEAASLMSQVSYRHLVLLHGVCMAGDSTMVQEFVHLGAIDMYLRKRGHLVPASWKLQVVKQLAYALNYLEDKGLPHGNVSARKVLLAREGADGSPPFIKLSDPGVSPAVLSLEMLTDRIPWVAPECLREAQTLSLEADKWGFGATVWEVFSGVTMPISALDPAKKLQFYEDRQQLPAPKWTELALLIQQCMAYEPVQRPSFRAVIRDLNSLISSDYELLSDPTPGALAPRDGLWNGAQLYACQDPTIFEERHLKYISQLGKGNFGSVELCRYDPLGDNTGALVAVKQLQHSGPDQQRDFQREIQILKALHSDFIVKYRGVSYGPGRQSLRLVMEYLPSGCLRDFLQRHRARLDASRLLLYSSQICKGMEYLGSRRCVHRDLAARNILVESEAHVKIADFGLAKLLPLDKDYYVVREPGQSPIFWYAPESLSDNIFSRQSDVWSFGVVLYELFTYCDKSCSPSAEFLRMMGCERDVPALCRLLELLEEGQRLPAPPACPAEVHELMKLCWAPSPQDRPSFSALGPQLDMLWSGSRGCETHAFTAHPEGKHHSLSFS
The experiment in a line: Inhibition of JAK3 (unknown origin) at 1 uM.

Test [13] concerns the target T2, Interleukin-1 receptor-associated kinase 4 (Homo sapiens) (UniProt Q9NWZ3).
T2 sequence (whole entry): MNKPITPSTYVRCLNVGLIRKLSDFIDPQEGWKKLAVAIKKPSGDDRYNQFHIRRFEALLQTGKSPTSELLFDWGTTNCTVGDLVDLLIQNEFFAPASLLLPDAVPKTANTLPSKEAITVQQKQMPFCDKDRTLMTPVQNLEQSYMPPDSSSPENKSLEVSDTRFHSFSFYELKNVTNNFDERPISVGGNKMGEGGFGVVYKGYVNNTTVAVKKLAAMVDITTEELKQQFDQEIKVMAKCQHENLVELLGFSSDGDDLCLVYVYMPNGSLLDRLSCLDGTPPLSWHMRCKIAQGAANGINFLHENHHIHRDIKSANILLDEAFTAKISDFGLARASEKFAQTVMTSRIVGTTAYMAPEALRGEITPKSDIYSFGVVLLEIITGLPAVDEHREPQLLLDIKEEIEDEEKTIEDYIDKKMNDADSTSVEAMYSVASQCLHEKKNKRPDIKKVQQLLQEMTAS
The test is described as follows: Inhibition of IRAK4 (unknown origin) at 1 uM.

For test [14], the target named is T3, Serine/threonine-protein kinase Chk1 (Homo sapiens) (UniProt O14757).
T3 sequence (whole entry): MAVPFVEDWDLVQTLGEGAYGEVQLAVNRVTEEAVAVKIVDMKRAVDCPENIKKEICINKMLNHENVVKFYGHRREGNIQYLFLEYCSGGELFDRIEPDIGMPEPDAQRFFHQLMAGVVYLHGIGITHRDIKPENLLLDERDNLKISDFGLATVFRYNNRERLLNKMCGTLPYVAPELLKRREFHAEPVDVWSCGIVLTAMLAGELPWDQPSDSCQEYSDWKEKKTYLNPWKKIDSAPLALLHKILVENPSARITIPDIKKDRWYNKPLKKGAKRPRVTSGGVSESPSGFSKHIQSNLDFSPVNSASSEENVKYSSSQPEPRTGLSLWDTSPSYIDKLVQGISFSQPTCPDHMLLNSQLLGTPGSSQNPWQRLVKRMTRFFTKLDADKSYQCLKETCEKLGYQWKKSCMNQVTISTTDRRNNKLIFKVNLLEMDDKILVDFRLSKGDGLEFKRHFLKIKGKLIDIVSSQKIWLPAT
The test is described as follows: Inhibition of CHK1 (unknown origin) at 1 uM.

Test [15] concerns the target Mitogen-activated protein kinase 8 (Rattus norvegicus) (UniProt P49185). The experiment in a line: Inhibition of albumin-conjugated palmitate-induced JNK1/2 phosphorylation assessed as JNK phosphorylation level in rat RINm5F cells incubated for 8 hrs. Format: cell-based.
The target in test [16] is Protein kinase C alpha type (Homo sapiens) (UniProt P17252). The test is described as follows: Inhibition of PKCalpha (unknown origin) at 1 uM.

Insulin receptor (Homo sapiens), sequence (P06213 28-758 limits assumed): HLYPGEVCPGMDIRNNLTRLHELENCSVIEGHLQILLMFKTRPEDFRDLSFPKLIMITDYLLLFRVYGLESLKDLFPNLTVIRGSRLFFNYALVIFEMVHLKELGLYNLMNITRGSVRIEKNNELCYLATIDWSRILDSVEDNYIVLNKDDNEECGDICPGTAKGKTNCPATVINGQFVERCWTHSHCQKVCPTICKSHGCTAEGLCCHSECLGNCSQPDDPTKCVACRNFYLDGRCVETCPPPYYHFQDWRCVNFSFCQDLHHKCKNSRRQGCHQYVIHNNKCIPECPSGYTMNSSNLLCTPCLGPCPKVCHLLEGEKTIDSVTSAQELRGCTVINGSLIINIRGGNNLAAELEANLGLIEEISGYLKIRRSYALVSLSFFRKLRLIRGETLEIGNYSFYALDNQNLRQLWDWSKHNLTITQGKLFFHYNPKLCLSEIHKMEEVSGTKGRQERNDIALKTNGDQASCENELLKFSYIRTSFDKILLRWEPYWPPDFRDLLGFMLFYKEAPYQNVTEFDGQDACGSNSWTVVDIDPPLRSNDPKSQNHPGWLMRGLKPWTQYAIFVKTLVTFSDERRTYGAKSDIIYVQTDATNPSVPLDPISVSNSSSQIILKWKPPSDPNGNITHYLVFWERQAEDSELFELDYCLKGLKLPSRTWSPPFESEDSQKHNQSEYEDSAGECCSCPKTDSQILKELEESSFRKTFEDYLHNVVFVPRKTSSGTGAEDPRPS
Insulin receptor (Homo sapiens), sequence (P06213 763-1382 limits assumed): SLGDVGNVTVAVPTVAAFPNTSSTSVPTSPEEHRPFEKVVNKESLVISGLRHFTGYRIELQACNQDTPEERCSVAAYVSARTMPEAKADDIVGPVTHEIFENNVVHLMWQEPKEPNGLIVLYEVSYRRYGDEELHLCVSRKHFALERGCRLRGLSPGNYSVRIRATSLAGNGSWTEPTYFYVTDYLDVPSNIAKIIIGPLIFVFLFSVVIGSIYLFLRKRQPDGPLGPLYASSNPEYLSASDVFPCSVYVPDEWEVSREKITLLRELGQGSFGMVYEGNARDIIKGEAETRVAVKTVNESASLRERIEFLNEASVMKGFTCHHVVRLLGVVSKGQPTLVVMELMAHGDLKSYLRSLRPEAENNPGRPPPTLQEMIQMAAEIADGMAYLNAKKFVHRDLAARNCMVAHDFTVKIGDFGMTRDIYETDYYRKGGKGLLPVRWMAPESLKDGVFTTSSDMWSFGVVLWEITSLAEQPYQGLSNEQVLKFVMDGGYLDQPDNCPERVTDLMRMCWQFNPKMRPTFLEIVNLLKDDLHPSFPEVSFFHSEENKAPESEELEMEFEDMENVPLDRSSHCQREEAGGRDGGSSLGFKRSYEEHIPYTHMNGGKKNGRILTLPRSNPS

The inhibition is the change of the read-out against control, counted positive when it falls. In the case of `Cn1c(=O)c(Oc2ccc(F)cc2F)cc2cnc(NC3CCN(S(N)(=O)=O)CC3)nc21`, the inhibition was determined as 96% in test [1]; 22% in test [2]; 8% in [3]; 27% in test [4]; 9% in [5]; 13% in test [6]. Also, the inhibition in [7] worked out at 9%; in test [8], 6%; in test [9], 11%; in test [10], 16%; in [11], 14%; in [12], 10%. Further, the inhibition in test [13] is 8%; in test [14], 9%; in test [16], 10%. Moreover, the inhibition result in test [15] was “inactive”.
